The source of these data is patent US10149839B2, “Chemical compounds” (AstraZeneca AB, priority 2016, dated 2018).

One may read the IC50 as the concentration that gives 50% inhibition. A high value points to a need for much substance. By solubility is commonly meant how much of the substance goes into solution per volume. A low value points to little dissolved substance. Usually logD stands for the decadic logarithm of the distribution of all forms, ionised or not, between an organic phase and buffer at a given pH. High values mean a more lipophilic compound, low ones a more hydrophilic compound.

The structures appear in SMILES notation. In brackets after ≈: the same amount, converted by molar mass. Some results are limits rather than exact numbers.

For series [1], the target named is T1, Estrogen Receptor (ERα) in MCF-7 cells (Homo sapiens (Human), UniProt P03372). The series is described as follows: MCF-7 ER down-regulation assay (immuno-fluorescence). The format is cell-based.
Series [2] concerns the target estrogen receptor (ERα) in CAMA-1 cells (Homo sapiens (Human), UniProt P03372). The experiment in a line: Western blotting assay, CAMA-1 cells. The format is cell-based. The following applies: compound 100 nM, 48 h, normalised to 100 nM fulvestrant (100%).
The target in series [3] is T1, Estrogen Receptor (ERα) in MCF-7 cells. The series is described as follows: Western blotting assay, MCF-7 cells. The following applies: compound 100 nM, 48 h, normalised to 100 nM fulvestrant (100%). The format is cell-based. For orientation: Immunoblotting shows a protein as a band on a membrane.
Series [4] is described as follows: Thermodynamic solubility (shake flask). It counts as physicochemical. The following applies: aqueous phosphate buffer, 25 °C, pH 7.4, aqueous buffer, thermodynamic from solid, aqueous phosphate buffer pH 7.4, 24 hours.
Series [5] can be described thus: Human plasma protein binding (equilibrium dialysis). The format is in vitro ADME. Particulars: dialysis 18 hours.
A further series in a line: physchem. Particulars: 1-octanol/aqueous buffer, pH 7.4.

T1 sequence (P03372 whole entry): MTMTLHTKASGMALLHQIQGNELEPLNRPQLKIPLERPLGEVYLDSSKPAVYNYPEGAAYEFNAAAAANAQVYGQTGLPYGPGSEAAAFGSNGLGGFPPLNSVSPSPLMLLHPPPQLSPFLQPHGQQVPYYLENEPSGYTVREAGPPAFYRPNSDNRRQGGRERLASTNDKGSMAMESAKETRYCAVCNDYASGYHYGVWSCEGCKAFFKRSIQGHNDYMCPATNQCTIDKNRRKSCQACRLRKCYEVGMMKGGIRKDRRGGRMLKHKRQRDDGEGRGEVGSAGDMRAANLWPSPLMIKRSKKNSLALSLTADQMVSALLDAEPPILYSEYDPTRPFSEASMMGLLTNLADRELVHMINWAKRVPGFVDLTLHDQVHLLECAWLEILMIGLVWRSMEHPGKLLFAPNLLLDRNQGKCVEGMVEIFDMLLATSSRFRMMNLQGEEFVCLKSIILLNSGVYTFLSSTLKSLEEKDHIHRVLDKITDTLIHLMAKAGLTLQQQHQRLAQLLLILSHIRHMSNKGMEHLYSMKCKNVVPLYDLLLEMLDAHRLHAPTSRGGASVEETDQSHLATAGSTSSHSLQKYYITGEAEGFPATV
Sequence of estrogen receptor (ERα) in CAMA-1 cells (P03372 whole entry): as above

Turning to `COc1cc(OCCNCCCF)ccc1[C@@H]1c2[nH]c3ccccc3c2C[C@@H](C)N1CC1(F)CC1` [Example 11, 3-fluoro-N-(2-(4-((1R,3R)-2-((1-fluorocyclopropyl)methyl)-3-methyl-2,3,4,9-tetrahydro-1H-pyrido[3,4-b]indol-1-yl)-3-methoxyphenoxy)ethyl)propan-1-amine], the midpoint of inhibition in series [1] (18-22 hours incubation), the IC50, lay at 0.46 nM. Also, the “CAMA1 Western % ER deg vs Fv” value in series [2] is recorded as 54%. Besides, the “MCF7 Western % ER deg vs Fv” value in series [3] is given as 81%.
With `COc1cc(NCCNCCCF)ccc1[C@@H]1c2[nH]c3ccccc3c2C[C@@H](C)N1CC1(F)COC1` [Example 47, N1-(4-((1R,3R)-2-((3-fluorooxetan-3-yl)methyl)-3-methyl-2,3,4,9-tetrahydro-1H-pyrido[3,4-b]indol-1-yl)-3-methoxyphenyl)-N2-(3-fluoropropyl)ethane-1,2-diamine], the concentration for half-maximal inhibition (IC50) in series [1] (18-22 hours incubation) came out at 0.24 nM. Moreover, the “CAMA1 Western % ER deg vs Fv” value in series [2] was found to be 81%. In series [3], the “MCF7 Western % ER deg vs Fv” value is recorded as 90%. In addition, in series [4], the solubility at 24 h amounted to 840 µM (≈ 419 µg/mL). Moreover, the “Human plasma protein binding (% free)” value in series [5] is 5.0 % free. Besides, the log distribution coefficient (logD) in the series “physchem” was determined as 2.5.
In series [1] (18-22 hours incubation), `C[C@@H]1Cc2c([nH]c3ccccc23)[C@@H](c2ccc(OCCNCCCF)cc2)N1CC(F)F` [Example 56, N-(2-(4-((1R,3R)-2-(2,2-difluoroethyl)-3-methyl-2,3,4,9-tetrahydro-1H-pyrido[3,4-b]indol-1-yl)phenoxy)ethyl)-3-fluoropropan-1-amine] showed an IC50 of 0.4 nM. The “CAMA1 Western % ER deg vs Fv” value in series [2] was found to be 66%. Besides, in series [3], the “MCF7 Western % ER deg vs Fv” value was found to be 74%. The solubility at 24 h in series [4] was 184 µM (≈ 82 µg/mL). The logD in the series “physchem” came out at 3.3.
`C[C@@H]1Cc2c([nH]c3ccccc23)[C@@H](c2c(F)cc(NCCNCCCF)cc2F)N1CC(F)(F)CO` [Example 46, 3-((1R,3R)-1-(2,6-difluoro-4-((2-((3-fluoropropyl)amino)ethyl)amino)phenyl)-3-methyl-1,3,4,9-tetrahydro-2H-pyrido[3,4-b]indol-2-yl)-2,2-difluoropropan-1-ol] yielded an IC50 in series [1] (18-22 hours incubation) of 0.093 nM. For the same compound, the “CAMA1 Western % ER deg vs Fv” value in series [2] is on record as 74%. The “MCF7 Western % ER deg vs Fv” value in series [3] is recorded as 88%. This compound also yielded a solubility at 24 h in series [4] of 952 µM (≈ 486 µg/mL). Also, in series [5], the “Human plasma protein binding (% free)” value came to 2.3 % free. In the series “physchem”, this compound showed a logD of 2.6.
In series [1] (18-22 hours incubation), `C[C@@H]1Cc2c([nH]c3ccccc23)[C@@H](c2c(F)cc(NCCNCCCF)cc2F)N1CC(F)F` [Example 54, N1-(4-((1R,3R)-2-(2,2-difluoroethyl)-3-methyl-2,3,4,9-tetrahydro-1H-pyrido[3,4-b]indol-1-yl)-3,5-difluorophenyl)-N2-(3-fluoropropyl)ethane-1,2-diamine] yielded an IC50 of 0.13 nM. Also, the “CAMA1 Western % ER deg vs Fv” value in series [2] was determined as 92%. In addition, the “MCF7 Western % ER deg vs Fv” value in series [3] is 87%. In series [4], this compound showed a solubility at 24 h of 242 µM (≈ 116 µg/mL). Also, the “Human plasma protein binding (% free)” value in series [5] is listed as 1.3 % free.
For the compound `COc1cc(OCCNCCCF)ccc1[C@@H]1c2[nH]c3ccccc3c2C[C@@H](C)N1CC1(F)COC1` [Example 8, 3-fluoro-N-(2-(4-((1R,3R)-2-((3-fluorooxetan-3-yl)methyl)-3-methyl-2,3,4,9-tetrahydro-1H-pyrido[3,4-b]indol-1-yl)-3-methoxyphenoxy)ethyl)propan-1-amine], in series [2], the “CAMA1 Western % ER deg vs Fv” value is 38%. Besides, the “MCF7 Western % ER deg vs Fv” value in series [3] is listed as 77%.
The compound `C[C@@H]1Cc2c([nH]c3ccccc23)[C@@H](c2ccc(OCCNCCCF)nc2)N1CC1(F)CC1` [Example 33, 3-fluoro-N-(2-((5-((1R,3R)-2-((1-fluorocyclopropyl)methyl)-3-methyl-2,3,4,9-tetrahydro-1H-pyrido[3,4-b]indol-1-yl)pyridin-2-yl)oxy)ethyl)propan-1-amine] gave a concentration for half-maximal inhibition (IC50) in series [1] (18-22 hours incubation) of 3.3 nM. The “% downregulation” value in series [1] (shown in brackets where not >90%) is listed as “(87%)”. In series [4], this compound yielded a solubility at 24 h of 244 µM (≈ 111 µg/mL). Further, the “Human plasma protein binding (% free)” value in series [5] was 3.0 % free. The logD in the series “physchem” stood at 3.
Consider `C[C@@H]1Cc2c([nH]c3ccccc23)[C@@H](c2c(F)cc(NCCNCCCF)cc2F)N1CC1(F)CC1` [Example 9, N^1-(3,5-difluoro-4-((1R,3R)-2-((1-fluorocyclopropyl)methyl)-3-methyl-2,3,4,9-tetrahydro-1H-pyrido[3,4-b]indol-1-yl)phenyl)-N^2-(3-fluoropropyl)ethane-1,2-diamine], for which the IC50 in series [1] (18-22 hours incubation) came out at 0.22 nM. For the same compound, the “CAMA1 Western % ER deg vs Fv” value in series [2] is given as 80%. Also, the “MCF7 Western % ER deg vs Fv” value in series [3] is 82%.
In series [1] (18-22 hours incubation), `COc1cc(NCCNCCCF)ncc1[C@@H]1c2[nH]c3ccccc3c2C[C@@H](C)N1CC1(F)COC1` [Example 66, N1-(5-((1R,3R)-2-((3-fluorooxetan-3-yl)methyl)-3-methyl-2,3,4,9-tetrahydro-1H-pyrido[3,4-b]indol-1-yl)-4-methoxypyridin-2-yl)-N2-(3-fluoropropyl)ethane-1,2-diamine] displayed an IC50 of 1 nM. The compound also gave a solubility at 24 h in series [4] of over 1000 µM. In series [5], the “Human plasma protein binding (% free)” value turned out to be 20 % free. This compound also came in with a logD in “physchem” of 2.
Regarding `C[C@@H]1Cc2c([nH]c3ccccc23)[C@@H](c2ccc(OCCNCCCF)nc2)N1CC1(F)COC1` [Example 34, 3-fluoro-N-(2-((5-((1R,3R)-2-((3-fluorooxetan-3-yl)methyl)-3-methyl-2,3,4,9-tetrahydro-1H-pyrido[3,4-b]indol-1-yl)pyridin-2-yl)oxy)ethyl)propan-1-amine], the IC50 in series [1] (18-22 hours incubation) was 6.2 nM. This compound also registered a solubility at 24 h in series [4] of 787 µM (≈ 370 µg/mL). Besides, in series [5], the “Human plasma protein binding (% free)” value is listed as 11 % free. Further, the logD in the series “physchem” worked out at 2.5.
Take `C[C@@H]1Cc2c([nH]c3ccccc23)[C@@H](c2c(F)cc(N(C)CCNCCCF)cc2F)N1CC(F)F` [Example 49, N1-(4-((1R,3R)-2-(2,2-difluoroethyl)-3-methyl-2,3,4,9-tetrahydro-1H-pyrido[3,4-b]indol-1-yl)-3,5-difluorophenyl)-N2-(3-fluoropropyl)-N1-methylethane-1,2-diamine]: it took 0.25 nM to reach half-maximal inhibition in series [1] (18-22 hours incubation) (IC50). Besides, the “CAMA1 Western % ER deg vs Fv” value in series [2] amounted to 95%. In addition, the “MCF7 Western % ER deg vs Fv” value in series [3] was 100%. Besides, the solubility at 24 h in series [4] was 70 µM (≈ 34.6 µg/mL). For the same compound, the “Human plasma protein binding (% free)” value in series [5] is recorded as 0.40 % free.
Consider `C[C@@H]1Cc2c([nH]c3ccccc23)[C@@H](c2ccc(OCCNCCCF)cc2F)N1CC(F)F` [Example 48, N-(2-(4-((1R,3R)-2-(2,2-difluoroethyl)-3-methyl-2,3,4,9-tetrahydro-1H-pyrido[3,4-b]indol-1-yl)-3-fluorophenoxy)ethyl)-3-fluoropropan-1-amine], for which the midpoint of inhibition in series [1] (18-22 hours incubation), the IC50, lay at 0.26 nM. The “CAMA1 Western % ER deg vs Fv” value in series [2] is 65%. Further, the “MCF7 Western % ER deg vs Fv” value in series [3] is recorded as 58%. The same compound yielded a solubility at 24 h in series [4] of 94 µM (≈ 43.6 µg/mL). The compound also gave a logD in the series “physchem” of 3.4.
In turn, `C[C@@H]1Cc2c([nH]c3ccccc23)[C@@H](c2ccc(OCCNCCCF)cc2F)N1CC1(F)CC1` [Example 21, 3-fluoro-N-(2-(3-fluoro-4-((1R,3R)-2-((1-fluorocyclopropyl)methyl)-3-methyl-2,3,4,9-tetrahydro-1H-pyrido[3,4-b]indol-1-yl)phenoxy)ethyl)propan-1-amine] came in with an IC50 in series [1] (18-22 hours incubation) of 0.48 nM. In series [4], this compound had a solubility at 24 h of 149 µM (≈ 70.3 µg/mL). The “Human plasma protein binding (% free)” value in series [5] is given as 2.1 % free. Besides, in the series “physchem”, the log distribution coefficient (logD) was 3.4.
On to `COc1cc(NCCNCCCF)ccc1[C@@H]1c2[nH]c3ccccc3c2C[C@@H](C)N1CC(F)F` [Example 61, N1-(4-((1R,3R)-2-(2,2-difluoroethyl)-3-methyl-2,3,4,9-tetrahydro-1H-pyrido[3,4-b]indol-1-yl)-3-methoxyphenyl)-N2-(3-fluoropropyl)ethane-1,2-diamine], for which the IC50 in series [1] (18-22 hours incubation) stood at 0.24 nM. The solubility at 24 h in series [4] stood at 24 µM (≈ 11.4 µg/mL). For the same compound, the “Human plasma protein binding (% free)” value in series [5] was determined as 1.3 % free. The same compound came in with a logD in the series “physchem” of 3.4.
Consider `COc1cc(OCCNCCCF)ncc1[C@@H]1c2[nH]c3ccccc3c2C[C@@H](C)N1CC1(F)CC1` [Example 37, 3-fluoro-N-(2-((5-((1R,3R)-2-((1-fluorocyclopropyl)methyl)-3-methyl-2,3,4,9-tetrahydro-1H-pyrido[3,4-b]indol-1-yl)-4-methoxypyridin-2-yl)oxy)ethyl)propan-1-amine], for which the IC50 in series [1] (18-22 hours incubation) was 0.51 nM. For the same compound, the solubility at 24 h in series [4] turned out to be 877 µM (≈ 425 µg/mL). For the same compound, the “Human plasma protein binding (% free)” value in series [5] stood at 8.5 % free. Besides, the log distribution coefficient (logD) in the series “physchem” stood at 2.4.
Regarding `C[C@@H]1Cc2c([nH]c3ccccc23)[C@@H](c2ccc(OCCNCCCF)cc2)N1CC(C)(F)F` [Example 57, N-(2-(4-((1R,3R)-2-(2,2-difluoropropyl)-3-methyl-2,3,4,9-tetrahydro-1H-pyrido[3,4-b]indol-1-yl)phenoxy)ethyl)-3-fluoropropan-1-amine], the IC50 in series [1] (18-22 hours incubation) was 0.27 nM. Besides, in series [4], the solubility at 24 h was 35 µM (≈ 16.1 µg/mL). The “Human plasma protein binding (% free)” value in series [5] is reported as 0.41 % free. In “physchem”, this compound showed a logD of 4.
For the compound `C[C@@H]1Cc2c([nH]c3ccccc23)[C@@H](c2cnc(OCCNCCCF)cc2F)N1CC1(F)COC1` [Example 62, 3-fluoro-N-(2-((4-fluoro-5-((1R,3R)-2-((3-fluorooxetan-3-yl)methyl)-3-methyl-2,3,4,9-tetrahydro-1H-pyrido[3,4-b]indol-1-yl)pyridin-2-yl)oxy)ethyl)propan-1-amine], the DC50 in series [1] (18-22 hours incubation, read-out: ER down regulation IC50 value) came out at 3.9 nM. The compound also gave a solubility at 24 h in series [4] of 587 µM (≈ 287 µg/mL). In addition, the “Human plasma protein binding (% free)” value in series [5] stood at 13 % free. The compound further gave a logD in the series “physchem” of 2.7.
